Experimental data reported in patent US12037354B2, “Cyclic pantetheine derivatives and uses thereof” (VectivBio Comet AG, priority 2018, dated 2024).

What was measured:
Type in all cases: cell-based, human
[1] = system: Venular endothelial cells co-cultured with macrophages (Mphg system); experiment: BioMAP Mphg system, Example 836
Experimental: (§1) The BioMAP platform (BioMAP® Diversity PLUS Panel from Eurofins) is an in vitro phenotypic profiling technology that screened the compounds of the present disclosure (hereafter indicated as test agents) in human primary cell-based systems modelling complex tissue and disease states. The BioMAP assays were performed using the Eurofin's BioMAP Technology Platform as (see references 1 to 13 in the example 824 section) to model different diseases on primary cell-based model systems. These systems consisted of either single primary cell types or co-culture cells. Adherent cell types were cultured or co-cultured in 96 or 384-well plates until confluence followed by the addition of compounds prepared in DMSO at a final concentration of ≤0.1%. In each cell-based system, primary cells from heathy donors (2-6 donors) were pooled and treated with compounds at 1 and 10 μM dose 1 h prior to stimulation and remain in culture as indicated in
(§2) Example 825, Example 826, Example 827, Example 828, Example 829, Example 830, Example 831, Example 832, Example 833, Example 834, Example 835, Example 836 and Example 837. For on the BioMAP® Diversity PLUS® Panel, please see the following references, which are incorporate herein.
Following the general procedure as described in Example 824, Venular endothelial cells co-cultured with macrophages (Mphg system) and treated with TLR2 ligand for 24 h in the presence or absence of the compounds to mimic cardiovascular inflammation, restenosis and chronic inflammation. Biomarkers read out were; MCP-1, MIP-1α, VCAM-1, CD40, E-selectin, CD69, IL-8, IL-1α, M-CSF, sIL-10 and SRB.

[2] = system: Peripheral blood mononuclear cells co-cultured with venular endothelial cells (Sag system); experiment: BioMAP Sag system, Example 828
Experimental: as §1, §2
Following the general procedure as described in Example 824, Peripheral blood mononuclear cells were co-cultured with venular endothelial cells and treated with soluble antigen (T-cell ligands) (Sag system) in the presence or absence of compounds to model autoimmune and chronic inflammation. Biomarkers read out were; MCP-1, CD38, CD40, E-selectin, CD69, IL-8, MIG, PBMC cytotoxicity, Proliferation and SRB.

[3] = system: Peripheral blood mononuclear cells co-cultured with B-cells (BT system); experiment: BioMAP BT system, Example 829
Experimental: as §1, §2
Following the general procedure as described in Example 824, Peripheral blood mononuclear cells were co-cultured with B-cells (BT system) were treated with either α-IgM and TCR ligands for 72 h in the presence or absence of the compounds to model asthma, allergy, oncology and autoimmunity. Biomarkers read out were; B-cell proliferation, PBMC cytotoxicity, secreted IgG, sIL-17A, sIL-17F, sIL-2, sIL-6 and s-TNFα.

[4] = system: Peripheral blood mononuclear cells co-cultured with venular endothelial cells (HUVEC) (LPS system); experiment: BioMAP LPS system, Example 827
Experimental: as §1, §2
Following the general procedure as described in Example 824, Peripheral blood mononuclear cells co-cultured with venular endothelial cells (HUVEC) (LPS system) were stimulated with LPS for 24 h in the presence or absence of compounds, to model cardiovascular disease and chronic inflammation. Biomarkers read out were; MCP-1, VCAM-1, Thrombomodulin, Tissue Factor, CD40, E-selectin, CD69, IL-8, IL-1α, M-CSF, sPGE2, SRB and TNFα.

[5] = system: Coronary artery smooth muscle cells (CASM3C system); experiment: BioMAP CASM3C system, Example 832
Experimental: as §1, §2
Following the general procedure as described in Example 824, Coronary artery smooth muscle cells (CASM3C system) were treated with IL-1β, TNFα and IFNγ for 24 h in the presence or absence of the compounds to model cardiovascular inflammation and restenosis. Biomarker reads out were; MCP-1, VCAM-1, Throbomodulin, Tissue factor, uPAR, IL-8, MIG, HLA-DR, IL-6, LDLR, M-CSF, PAI-1, Proliferation, SAA and SRB

[6] = system: Keratinocytes co-cultured with dermal fibroblast (KF3CT system); experiment: BioMAP KF3CT system, Example 834
Experimental: as §1, §2
Following the general procedure as described in Example 824, Keratinocytes were co-cultured with dermal fibroblast (KF3CT system) and treated with […], TNFα, IFNγ and TGFβ for 24 h in the presence or absence of the compounds to model psoriasis, dermatitis and skin biology. Biomarkers read out were; MCP-1, ICAM-1, IP-10, IL-8, MIG, IL-1α, MMP-9, PAI-1, SRB, TIMP-2, uPA.

[7] = system: Bronchial epithelial cells (BE3C system); experiment: BioMAP BE3C system, Example 831
Experimental: as §1, §2
Following the general procedure as described in Example 824, Bronchial epithelial cells (BE3C system) were treated with IL-1f3, TNFα and IFNγ for 24 h in the presence or absence of the compounds to model lung inflammation and chronic obstructive pulmonary disease (COPD). Biomarkers read out were; ICAM-1, uPAR, IP-10, I-TAC, IL-8, MIG, EGFR, HLA-DR, IL-1α, Keratin 8/18, MMP-1, MMP-9, PAI-1, SRB, tPA, uPA.

[8] = system: Bronchial epithelial cells co-cultured with dermal fibroblast (BF4T system); experiment: BioMAP BF4T system, Example 830
Experimental: as §1, §2
Following the general procedure as described in Example 824, Bronchial epithelial cells were co-cultured with dermal fibroblast (BF4T system) and were treated with TNFα and IL-4 for 24 h in the presence or absence of the compounds to model asthma, allergy, fibrosis, lung inflammation. Biomarkers read out were; MCP-1, Eotaxin-3, VCAM-1, ICAM-1, CD90, IL-8, IL-1α, keratin 8/18, MMP-1, MMP-3, MMP-9, PAI-1, SRB, tPA, uPA.

[9] = Example 988, concentration tested 1 uM
[10] = procedure of Example 827, concentration tested 1 uM

SMILES	% increase in B-cell Proliferation ([3]; BT system, 10 uM) [%]	% increase in sIL-6 ([3]; BT system, 10 uM) [%]	% increase in B-cell Proliferation ([3]; concentration tested 10 uM) [%]	% decrease in M-CSF [4, 9] [%]	% decrease in IL-1α ([4]; LPS system, 1 uM) [%]	% decrease in IL-8 ([4]; LPS system, 1 uM) [%]	% decrease in M-CSF ([4]; LPS system, 1 uM) [%]	% decrease in Thrombomodulin ([4]; LPS system, 1 uM) [%]	% decrease in Tissue Factor ([4]; LPS system, 10 uM) [%]	% decrease in IL-1α ([4]; concentration tested 1 uM) [%]	% decrease in Thrombomodulin ([4]; concentration tested 1 uM) [%]	% decrease in Tissue Factor ([4]; concentration tested 10 uM) [%]	% decrease in IL-8 [4, 10] [%]	% decrease in LDLR ([5]; 1 uM) [%]	% decrease in VCAM-1 ([5]; 1 uM) [%]	% decrease in uPAR ([5]; 1 uM) [%]	% decrease in Thrombomodulin ([5]; 10 uM) [%]	% decrease in MCP-1 ([6]; 1 uM (Example 927)) [%]	% decrease in MCP-1 ([6]; 1 uM (Example 928)) [%]	% decrease in sTNFα ([3]; BT system, 10 uM) [%]	also measured
C/C=C/C(=O)SCCNC(=O)CCNC(=O)[C@@H]1OP(=O)(O)OCC1(C)C [Compound 36]	≥20	≥10	≥20	≥20	≥10	≥20	≥20	≥10	≥10	≥10	≥10	≥10	≥20	≥10	≥10	≥10	≥20	–	–	–	% increase in MIP-1α ([1]; Mphg system, 10 uM): ≥10%; % decrease in CXCL8/IL-8 ([2]; Sag system, 10 uM): ≥10%; % decrease in CXCL8/IL-8 ([2]; concentration tested 10 uM): ≥10%; % decrease in sTNFα ([3]; BT system, 1 uM): ≥10%; % decrease in sPGE2 ([4]; LPS system, 10 uM): ≥10%; % decrease in sTNFα ([4]; LPS system, 10 uM): ≥10%; % decrease in sTNFα ([4]; concentration tested 10 uM): ≥10%; % decrease in HLA-DR ([5]; 10 uM): ≥10%; % decrease in M-CSF ([5]; 10 uM): ≥10%; % decrease in Tissue Factor ([5]; 10 uM): ≥10%
COC(=O)CCC(=O)SCCNC(=O)CCNC(=O)[C@@H]1OC(C)(CC(=O)OC)OCC1(C)C (stereo partly shown) [Compound 633]	≥20	≥20	≥20	≥10	–	≥20	≥10	≥20	–	–	≥20	–	≥20	≥10	≥10	≥10	–	≥10	≥10	≥10	% decrease in VCAM-1 ([1]; procedure of Example 836, 1 uM): ≥10%; % decrease in α-SMA ([1]; procedure of Example 836, 10 uM): ≥10%; % increase in sIL-2 ([3]; BT system, 10 uM): ≥20%; % decrease in Tissue Factor ([4]; LPS system, 1 uM): ≥10%; % decrease in sPGE2 ([4]; LPS system, 1 uM): ≥10%; % decrease in sTNFα ([4]; LPS system, 1 uM): ≥10%; % increase in sTNFα ([4]; LPS system, 10 uM): ≥10%; % decrease in Tissue Factor ([4]; concentration tested 1 uM): ≥10%; % decrease in sTNFα ([4]; concentration tested 1 uM): ≥10%; % increase in sTNFα ([4]; concentration tested 10 uM): ≥10%; % increase in IL-8 ([7]; 1 uM): ≥10%; % decrease in MMP-9 ([7]; 10 uM): ≥10%; % decrease in HLA-DR ([5]; 1 uM): ≥10%; % decrease in M-CSF ([5]; 1 uM): ≥10%; % decrease in Thrombomodulin ([5]; 1 uM): ≥10%; % decrease in Tissue Factor ([5]; 1 uM): ≥10%; % decrease in IL-8 ([5]; 10 uM): ≥10%; % decrease in MMP-9 ([8]; 1 uM): ≥10%; % increase in Eotaxin-3 ([8]; 10 uM): ≥10%
CC(=O)CC(=O)SCCNC(=O)CCNC(=O)[C@@H]1OP(=O)(O)OCC1(C)C [Compound 42]	–	–	–	≥20	≥10	≥20	≥20	≥10	≥10	≥10	≥10	≥10	≥20	–	–	–	≥10	≥10	≥10	≥20	% decrease in α-SMA ([1]; procedure of Example 836, 1 uM): ≥10%; % increase in MMP-1 ([1]; procedure of Example 836, 1 uM): ≥10%; % increase in CD69 ([2]; Sag system, 10 uM): ≥10%; % increase in MCP-1 ([2]; Sag system, 10 uM): ≥10%; % increase in CD69 ([2]; concentration tested 10 uM): ≥10%; % decrease in B-cell proliferation ([3]; BT system, 10 uM): ≥10%; % decrease in sIL-17 ([3]; BT system, 10 uM): ≥20%; % decrease in B-cell proliferation ([3]; concentration tested 10 uM): ≥10%; % decrease in sIL-17 ([3]; concentration tested 10 uM): ≥20%; % increase in sTNFα ([4]; LPS system, 10 uM): ≥20%; % increase in sTNFα ([4]; concentration tested 10 uM): ≥20%; % decrease in MMP-9 ([7]; 1 uM): ≥10%; % decrease in IL-8 ([5]; 10 uM): ≥10%; % decrease in LDLR ([5]; 10 uM): ≥10%; % increase in Eotaxin-3 ([8]; 10 uM): ≥10%; % increase in VCAM-1 ([8]; 10 uM): ≥10%
